PMC4032265 (PLoS ONE, 2014)
Values joined by “and” are separate entries in the source; they are usually repeats but may differ in a detail not shown here. Identical values can stand only once. Like-named read-outs stand apart in the source and are kept apart here.

How the values were obtained:
[1] = target: T1, M5 muscarinic acetylcholine receptor (Homo sapiens, UniProt P08912); experiment: PDSP radioligand binding, M5; details: read-out: % inhibition at 10 µM
T1 sequence (P08912 1-532): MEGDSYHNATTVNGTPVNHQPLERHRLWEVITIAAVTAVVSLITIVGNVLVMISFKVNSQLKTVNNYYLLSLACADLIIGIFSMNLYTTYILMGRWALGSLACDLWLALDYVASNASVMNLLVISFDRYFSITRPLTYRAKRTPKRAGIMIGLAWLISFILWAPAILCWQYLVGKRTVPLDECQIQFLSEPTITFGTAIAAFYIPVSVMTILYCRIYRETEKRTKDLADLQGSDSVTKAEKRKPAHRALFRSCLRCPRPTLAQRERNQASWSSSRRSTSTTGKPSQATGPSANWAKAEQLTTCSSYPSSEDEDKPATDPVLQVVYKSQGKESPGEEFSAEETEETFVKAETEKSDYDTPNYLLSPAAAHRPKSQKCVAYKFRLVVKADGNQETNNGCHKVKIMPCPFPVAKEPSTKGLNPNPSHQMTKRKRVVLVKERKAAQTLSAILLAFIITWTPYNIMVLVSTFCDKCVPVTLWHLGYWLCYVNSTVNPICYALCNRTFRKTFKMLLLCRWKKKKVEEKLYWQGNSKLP

[2] = target: M3 muscarinic acetylcholine receptor (Homo sapiens, UniProt P20309); experiment: PDSP radioligand binding, M3; details: read-out: % inhibition at 10 µM
[3] = target: 5HT1E serotonergic receptor (Homo sapiens, UniProt P28566); experiment: PDSP radioligand binding, 5HT1E; details: read-out: % inhibition at 10 µM
[4] = target: H1 histaminergic receptor (Homo sapiens, UniProt P35367); experiment: PDSP radioligand binding, H1; details: read-out: % inhibition at 10 µM
[5] = target: hERG potassium channel (Homo sapiens, UniProt Q12809); experiment: PDSP hERG functional assay; format: cell-based; details: for inhibition at 10 µM: human, single point 10 µM; for Ki: not binding
[6] = target: 5HT1B serotonergic receptor (Homo sapiens, UniProt P28222); experiment: PDSP radioligand binding, 5HT1B; details: read-out: % inhibition at 10 µM
[7] = target: κ opioid receptor (Homo sapiens, UniProt P41145); experiment: PDSP radioligand binding, κ opioid; details: read-out: % inhibition at 10 µM
[8] = target: D2 dopaminergic receptor (Homo sapiens, UniProt P14416); experiment: PDSP radioligand binding, D2; details: read-out: % inhibition at 10 µM
[9] = target: δ opioid receptor (Homo sapiens, UniProt P41143); experiment: PDSP radioligand binding, δ opioid; details: for Ki: full concentration-response curves, n = 3-6 unless noted; for inhibition at 10 µM: read-out: % inhibition at 10 µM
[10] = target: T2, D4 dopaminergic receptor (Homo sapiens, UniProt P21917); experiment: PDSP radioligand binding, D4; details: read-out: % inhibition at 10 µM
T2 sequence (P21917 1-419): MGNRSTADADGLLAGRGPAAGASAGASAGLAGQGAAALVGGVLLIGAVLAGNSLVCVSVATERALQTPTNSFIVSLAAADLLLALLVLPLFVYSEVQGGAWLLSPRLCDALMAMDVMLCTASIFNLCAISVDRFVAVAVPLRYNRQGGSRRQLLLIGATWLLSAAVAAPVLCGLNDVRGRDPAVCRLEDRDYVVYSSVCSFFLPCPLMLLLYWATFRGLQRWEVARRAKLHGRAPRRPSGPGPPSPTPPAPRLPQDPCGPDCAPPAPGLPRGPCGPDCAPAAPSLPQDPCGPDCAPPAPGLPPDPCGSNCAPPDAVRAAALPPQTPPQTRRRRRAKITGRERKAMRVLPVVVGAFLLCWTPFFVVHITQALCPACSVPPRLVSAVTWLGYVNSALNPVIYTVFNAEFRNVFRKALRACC

[11] = target: D3 dopaminergic receptor (Homo sapiens, UniProt P35462); experiment: PDSP radioligand binding, D3; details: read-out: % inhibition at 10 µM
[12] = target: 5HT6 serotonergic receptor (Homo sapiens, UniProt P50406); experiment: PDSP radioligand binding, 5HT6; details: read-out: % inhibition at 10 µM
[13] = target: D1 dopaminergic receptor (Homo sapiens, UniProt P21728); experiment: PDSP radioligand binding, D1; details: read-out: % inhibition at 10 µM
[14] = target: T3, 5HT2C serotonergic receptor (Homo sapiens, UniProt P28335); experiment: PDSP radioligand binding, 5HT2C; details: for Ki: full concentration-response curves, n = 3-6 unless noted; for inhibition at 10 µM: read-out: % inhibition at 10 µM
T3 sequence (P28335 33-458): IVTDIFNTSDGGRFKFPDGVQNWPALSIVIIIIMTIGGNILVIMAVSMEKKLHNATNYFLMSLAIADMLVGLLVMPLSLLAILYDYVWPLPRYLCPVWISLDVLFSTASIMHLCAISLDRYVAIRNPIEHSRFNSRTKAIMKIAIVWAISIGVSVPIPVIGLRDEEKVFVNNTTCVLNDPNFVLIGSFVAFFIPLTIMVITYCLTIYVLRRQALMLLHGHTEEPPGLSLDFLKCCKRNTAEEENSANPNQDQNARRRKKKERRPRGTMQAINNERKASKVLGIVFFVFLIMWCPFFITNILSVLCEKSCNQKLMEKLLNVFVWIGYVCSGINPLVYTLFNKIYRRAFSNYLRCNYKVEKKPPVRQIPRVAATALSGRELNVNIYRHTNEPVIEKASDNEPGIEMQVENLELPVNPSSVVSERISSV

[15] = target: 5HT5A serotonergic receptor (Homo sapiens, UniProt P47898); experiment: PDSP radioligand binding, 5HT5A; details: for inhibition at 10 µM: read-out: % inhibition at 10 µM
[16] = target: T4, M4 muscarinic acetylcholine receptor (Homo sapiens, UniProt P08173); experiment: PDSP radioligand binding, M4; details: read-out: % inhibition at 10 µM
T4 sequence (P08173 1-479): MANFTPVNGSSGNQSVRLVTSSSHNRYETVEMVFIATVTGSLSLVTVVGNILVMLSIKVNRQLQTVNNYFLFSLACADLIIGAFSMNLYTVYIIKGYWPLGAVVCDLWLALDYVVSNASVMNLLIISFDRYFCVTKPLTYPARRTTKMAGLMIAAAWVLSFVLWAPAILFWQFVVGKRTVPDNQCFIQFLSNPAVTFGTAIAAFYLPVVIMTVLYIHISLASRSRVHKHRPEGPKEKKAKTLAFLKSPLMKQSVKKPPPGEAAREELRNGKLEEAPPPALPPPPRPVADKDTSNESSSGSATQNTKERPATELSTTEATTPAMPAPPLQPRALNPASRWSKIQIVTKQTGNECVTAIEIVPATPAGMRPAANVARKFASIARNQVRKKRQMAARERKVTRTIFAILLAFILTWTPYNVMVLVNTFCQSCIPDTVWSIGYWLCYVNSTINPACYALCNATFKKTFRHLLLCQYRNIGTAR

Sequence of D1 dopaminergic receptor (P21728 whole entry): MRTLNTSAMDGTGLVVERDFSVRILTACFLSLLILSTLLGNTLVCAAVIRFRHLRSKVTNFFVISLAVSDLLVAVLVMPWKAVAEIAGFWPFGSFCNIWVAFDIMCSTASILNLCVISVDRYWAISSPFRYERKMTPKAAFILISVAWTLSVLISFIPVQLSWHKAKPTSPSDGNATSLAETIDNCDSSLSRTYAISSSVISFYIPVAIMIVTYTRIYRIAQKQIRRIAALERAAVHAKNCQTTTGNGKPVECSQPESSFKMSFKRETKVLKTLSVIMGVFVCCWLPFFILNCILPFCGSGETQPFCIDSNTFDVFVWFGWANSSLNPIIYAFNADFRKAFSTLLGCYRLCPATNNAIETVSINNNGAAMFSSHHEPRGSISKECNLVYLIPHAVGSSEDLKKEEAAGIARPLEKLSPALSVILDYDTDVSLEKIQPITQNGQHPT
Sequence of D2 dopaminergic receptor (P14416 whole entry): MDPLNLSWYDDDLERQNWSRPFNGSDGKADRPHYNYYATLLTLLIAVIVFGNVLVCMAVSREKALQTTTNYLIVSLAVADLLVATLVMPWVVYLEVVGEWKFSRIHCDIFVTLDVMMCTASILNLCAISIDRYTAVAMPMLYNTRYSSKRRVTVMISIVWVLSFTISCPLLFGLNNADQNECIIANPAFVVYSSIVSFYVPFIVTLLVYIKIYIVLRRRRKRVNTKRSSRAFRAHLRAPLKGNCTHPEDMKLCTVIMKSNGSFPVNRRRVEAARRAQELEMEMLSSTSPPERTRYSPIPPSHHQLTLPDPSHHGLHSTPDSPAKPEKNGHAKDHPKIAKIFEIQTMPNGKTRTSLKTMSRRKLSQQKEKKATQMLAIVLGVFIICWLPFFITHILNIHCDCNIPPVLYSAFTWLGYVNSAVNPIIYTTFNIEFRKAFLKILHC
Sequence of H1 histaminergic receptor (P35367 whole entry): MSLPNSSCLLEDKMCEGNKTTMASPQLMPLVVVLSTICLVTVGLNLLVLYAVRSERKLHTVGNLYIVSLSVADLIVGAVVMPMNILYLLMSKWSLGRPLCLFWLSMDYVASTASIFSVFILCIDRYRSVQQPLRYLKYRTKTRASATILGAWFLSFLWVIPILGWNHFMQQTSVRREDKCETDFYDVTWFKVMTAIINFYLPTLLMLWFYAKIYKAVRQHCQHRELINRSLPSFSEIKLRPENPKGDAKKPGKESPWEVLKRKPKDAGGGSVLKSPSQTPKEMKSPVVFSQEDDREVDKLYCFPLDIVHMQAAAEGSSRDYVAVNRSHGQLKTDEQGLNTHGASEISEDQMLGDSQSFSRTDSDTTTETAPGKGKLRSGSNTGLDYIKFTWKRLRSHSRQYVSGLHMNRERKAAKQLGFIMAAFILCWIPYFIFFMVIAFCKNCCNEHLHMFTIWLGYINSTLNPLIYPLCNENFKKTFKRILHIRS
Sequence of κ opioid receptor (P41145 whole entry): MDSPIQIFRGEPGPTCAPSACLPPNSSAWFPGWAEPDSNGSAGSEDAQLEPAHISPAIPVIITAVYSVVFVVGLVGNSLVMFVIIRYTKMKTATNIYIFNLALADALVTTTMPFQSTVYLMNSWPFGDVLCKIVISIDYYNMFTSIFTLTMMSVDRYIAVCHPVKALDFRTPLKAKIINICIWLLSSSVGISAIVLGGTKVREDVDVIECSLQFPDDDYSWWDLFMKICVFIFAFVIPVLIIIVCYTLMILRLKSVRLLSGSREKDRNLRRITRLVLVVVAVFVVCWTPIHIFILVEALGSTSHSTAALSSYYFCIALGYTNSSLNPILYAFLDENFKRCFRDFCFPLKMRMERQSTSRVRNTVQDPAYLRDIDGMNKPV
Sequence of 5HT1B serotonergic receptor (P28222 whole entry): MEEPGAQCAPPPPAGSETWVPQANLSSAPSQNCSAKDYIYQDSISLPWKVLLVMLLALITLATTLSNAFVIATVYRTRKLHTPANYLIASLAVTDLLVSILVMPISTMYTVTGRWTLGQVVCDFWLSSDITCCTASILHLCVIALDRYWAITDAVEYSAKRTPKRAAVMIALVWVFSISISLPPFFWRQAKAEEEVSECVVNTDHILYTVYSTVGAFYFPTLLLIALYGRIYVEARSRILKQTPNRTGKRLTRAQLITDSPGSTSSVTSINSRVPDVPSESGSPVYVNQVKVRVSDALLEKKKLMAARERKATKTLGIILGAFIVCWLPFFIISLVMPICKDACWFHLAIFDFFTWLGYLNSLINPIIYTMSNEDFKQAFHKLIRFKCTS
Sequence of D3 dopaminergic receptor (P35462 whole entry): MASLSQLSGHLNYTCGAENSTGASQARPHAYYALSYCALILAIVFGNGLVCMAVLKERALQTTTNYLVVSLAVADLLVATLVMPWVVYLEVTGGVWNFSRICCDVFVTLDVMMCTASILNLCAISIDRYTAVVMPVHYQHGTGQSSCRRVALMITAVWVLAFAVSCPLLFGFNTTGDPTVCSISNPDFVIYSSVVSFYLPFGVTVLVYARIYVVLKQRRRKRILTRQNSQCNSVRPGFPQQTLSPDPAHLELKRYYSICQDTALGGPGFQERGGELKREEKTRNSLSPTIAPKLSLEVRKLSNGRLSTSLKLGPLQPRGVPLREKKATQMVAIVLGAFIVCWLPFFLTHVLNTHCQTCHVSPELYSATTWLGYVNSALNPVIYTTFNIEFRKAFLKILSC
Sequence of 5HT5A serotonergic receptor (P47898 whole entry): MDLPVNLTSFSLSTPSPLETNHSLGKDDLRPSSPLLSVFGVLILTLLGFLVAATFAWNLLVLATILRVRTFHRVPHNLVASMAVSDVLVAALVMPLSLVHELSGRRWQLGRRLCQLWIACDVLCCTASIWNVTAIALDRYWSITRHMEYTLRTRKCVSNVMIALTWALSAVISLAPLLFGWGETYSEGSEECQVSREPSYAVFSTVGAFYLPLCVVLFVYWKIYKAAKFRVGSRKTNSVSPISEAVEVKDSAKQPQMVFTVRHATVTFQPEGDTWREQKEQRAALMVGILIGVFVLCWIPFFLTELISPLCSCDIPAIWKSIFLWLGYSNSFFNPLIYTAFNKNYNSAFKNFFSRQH
Sequence of δ opioid receptor (P41143 whole entry): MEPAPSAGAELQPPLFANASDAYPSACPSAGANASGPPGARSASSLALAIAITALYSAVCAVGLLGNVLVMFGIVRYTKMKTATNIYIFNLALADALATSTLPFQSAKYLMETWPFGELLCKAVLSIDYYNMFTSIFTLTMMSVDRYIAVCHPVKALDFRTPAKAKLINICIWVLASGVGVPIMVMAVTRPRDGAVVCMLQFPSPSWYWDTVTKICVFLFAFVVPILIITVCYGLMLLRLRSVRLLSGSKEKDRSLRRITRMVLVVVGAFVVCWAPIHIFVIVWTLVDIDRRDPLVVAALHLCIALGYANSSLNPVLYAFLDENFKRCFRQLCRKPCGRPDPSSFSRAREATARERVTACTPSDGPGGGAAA
Sequence of 5HT6 serotonergic receptor (P50406 whole entry): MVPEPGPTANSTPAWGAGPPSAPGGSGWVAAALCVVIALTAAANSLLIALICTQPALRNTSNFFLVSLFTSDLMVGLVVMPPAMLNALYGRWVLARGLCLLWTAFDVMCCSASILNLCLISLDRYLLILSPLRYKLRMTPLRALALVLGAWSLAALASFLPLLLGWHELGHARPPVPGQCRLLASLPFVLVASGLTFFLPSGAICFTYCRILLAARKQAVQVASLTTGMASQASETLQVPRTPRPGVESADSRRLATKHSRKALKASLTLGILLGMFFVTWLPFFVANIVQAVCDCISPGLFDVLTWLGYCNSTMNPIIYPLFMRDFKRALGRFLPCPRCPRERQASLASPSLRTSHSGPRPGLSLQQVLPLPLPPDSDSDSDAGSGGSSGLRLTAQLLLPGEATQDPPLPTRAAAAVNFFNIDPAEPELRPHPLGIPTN
Sequence of M3 muscarinic acetylcholine receptor (P20309 whole entry): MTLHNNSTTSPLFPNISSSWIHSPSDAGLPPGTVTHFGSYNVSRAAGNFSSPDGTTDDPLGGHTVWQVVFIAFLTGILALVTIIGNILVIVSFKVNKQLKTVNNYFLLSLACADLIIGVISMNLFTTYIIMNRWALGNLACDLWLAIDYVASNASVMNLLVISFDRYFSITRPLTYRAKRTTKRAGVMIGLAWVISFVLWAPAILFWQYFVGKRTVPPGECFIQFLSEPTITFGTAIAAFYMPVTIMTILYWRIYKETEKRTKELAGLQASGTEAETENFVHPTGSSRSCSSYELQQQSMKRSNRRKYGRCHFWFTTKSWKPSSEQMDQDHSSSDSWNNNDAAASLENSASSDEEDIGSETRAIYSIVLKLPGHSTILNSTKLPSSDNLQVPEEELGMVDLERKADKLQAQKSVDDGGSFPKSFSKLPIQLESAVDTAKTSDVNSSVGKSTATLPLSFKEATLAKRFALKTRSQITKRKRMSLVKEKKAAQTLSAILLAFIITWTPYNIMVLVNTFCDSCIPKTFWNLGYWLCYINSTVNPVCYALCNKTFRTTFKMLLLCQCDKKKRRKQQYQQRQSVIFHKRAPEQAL
Sequence of 5HT1E serotonergic receptor (P28566 whole entry): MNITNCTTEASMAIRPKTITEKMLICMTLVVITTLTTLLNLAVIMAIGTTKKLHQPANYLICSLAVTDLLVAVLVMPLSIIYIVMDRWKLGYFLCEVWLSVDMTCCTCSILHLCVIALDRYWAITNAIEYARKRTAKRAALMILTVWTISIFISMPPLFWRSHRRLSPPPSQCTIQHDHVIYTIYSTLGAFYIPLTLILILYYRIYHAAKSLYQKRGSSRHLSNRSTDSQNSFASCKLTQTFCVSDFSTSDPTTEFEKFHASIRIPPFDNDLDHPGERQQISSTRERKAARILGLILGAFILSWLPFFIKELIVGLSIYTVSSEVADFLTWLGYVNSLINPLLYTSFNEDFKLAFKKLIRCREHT

Row | Compound | inhibition at 10 µM [5] | Ki [5] | Ki [14] | inhibition at 10 µM ([1]; single concentration 10 µM) | inhibition at 10 µM ([2]; single concentration 10 µM) | inhibition at 10 µM ([3]; single concentration 10 µM) | inhibition at 10 µM ([4]; single concentration 10 µM) | inhibition at 10 µM ([6]; single concentration 10 µM) | inhibition at 10 µM ([7]; single concentration 10 µM) | inhibition at 10 µM ([8]; single concentration 10 µM) | inhibition at 10 µM ([9]; single concentration 10 µM) | inhibition at 10 µM ([10]; single concentration 10 µM) | inhibition at 10 µM ([11]; single concentration 10 µM) | inhibition at 10 µM ([12]; single concentration 10 µM) | inhibition at 10 µM ([13]; single concentration 10 µM) | inhibition at 10 µM ([14]; single concentration 10 µM) | inhibition at 10 µM ([15]; single concentration 10 µM) | inhibition at 10 µM ([16]; single concentration 10 µM) | further results
1 | CNC(=O)[C@@]12C[C@@H]1[C@@H](n1cnc3c(NCc4cccc(Cl)c4)nc(C#Cc4ccc(F)c(F)c4)nc31)[C@H](O)[C@@H]2O [Compound 1] | 43 ± 1.9% | 12.2 µM | 7.19 ± 1.41 µM | – | – | – | – | – | – | – | – | – | – | – | – | – | – | – | inhibition at 10 µM [1]: 2%; inhibition at 10 µM [2]: 2%; inhibition at 10 µM [3]: 12%; inhibition at 10 µM [4]: 0%; inhibition at 10 µM [6]: 0%; inhibition at 10 µM [7]: 71%; inhibition at 10 µM [8]: 0%; Ki [9]: 2.44 ± 1.54 µM; inhibition at 10 µM [9]: 44%; inhibition at 10 µM [10]: 0%; inhibition at 10 µM [11]: 2%; inhibition at 10 µM [12]: 0%; inhibition at 10 µM [13]: 13%; inhibition at 10 µM [14]: 20%; inhibition at 10 µM [15]: 3%; inhibition at 10 µM [16]: 20%
2 | CNC(=O)[C@@]12C[C@@H]1[C@@H](n1cnc3c(NCc4cccc(Cl)c4)nc(C#Cc4ccc(F)cc4)nc31)[C@H](O)[C@@H]2O [Compound 2] | 5.8 ± 11.9% | 39.5 µM | – | 9% | 6% | 0% | 0% | 0% | 20% | 0% | 24% | 0% | 4% | 36% | 19% | 16% | 25% | 8% | Ki [9]: 6.62 ± 1.7 µM
3 | CNC(=O)[C@@]12C[C@@H]1[C@@H](n1cnc3c(NCc4cccc(Cl)c4)nc(C#Cc4ccccc4Cl)nc31)[C@H](O)[C@@H]2O [Compound 3] | 10.3 ± 4.9% | 39.2 µM | – | 9% | 5% | 0% | 21% | 0% | 19% | 0% | 31% | 1% | 7% | 59% | 27% | 25% | 29% | 8% | Ki [15]: 6.3 µM
4 | CNC(=O)[C@@]12C[C@@H]1[C@@H](n1cnc3c(NCc4cccc(Cl)c4)nc(Cl)nc31)[C@H](O)[C@@H]2O [Compound 4] | 2% | – | 0.12 µM and 0.122 µM | 1% | 1% | 0% | 6% | 23% | 6% | 16% | 10% | 6% | 22% | 9% | 11% | 95% | 21% | 30% | –
5 | CNC(=O)[C@@]12C[C@@H]1[C@@H](n1cnc3c(NC)nc(C#Cc4ccc(F)c(F)c4)nc31)[C@H](O)[C@@H]2O [Compound 5] | – | 7.93 µM | – | 4% | 5% | 9% | 0% | 15% | 21% | 18% | 9% | 4% | 4% | 15% | 0% | – | 5% | 0% | inhibition at 10 µM [14]: 1%
6 | O[C@@H]1[C@H](O)[C@@H]2C[C@@H]2[C@H]1n1cnc2c(NCc3cccc(Cl)c3)nc(C#Cc3ccc(F)c(F)c3)nc21 [Compound 6] | – | – | – | 3% | 0% | 0% | 3% | 13% | 29% | 9% | 11% | 0% | 0% | 0% | 3% | 0% | 15% | 32% | –
7 | O[C@@H]1[C@H](O)[C@@H]2C[C@@H]2[C@H]1n1cnc2c(NCc3cccc(Cl)c3)ncnc21 [Compound 7] | – | – | 1.74 µM | 15% | 11% | 0% | 64% | 2% | 4% | 6% | 7% | 0% | 4% | 39% | 2% | 51% | 16% | 4% | –
8 | Fc1ccc(C#Cc2nc(NCc3cccc(Cl)c3)c3nc[nH]c3n2)cc1F [Compound 8] | – | – | – | 2% | 10% | 0% | 1% | 32% | 15% | 0% | 12% | 0% | 23% | 0% | 0% | 11% | 11% | 4% | –
9 | Clc1cccc(CNc2nc(Cl)nc3[nH]cnc23)c1 [Compound 9] | – | – | 3.32 ± 0.32 µM | 0% | 0% | 0% | 4% | 6% | 0% | 0% | 7% | 0% | 6% | 31% | 0% | 56% | 38% | 0% | Ki [15]: 4.49 µM
